Consider one molecule from patent US11453703B2, “Heterotandem bicyclic peptide complexes” (BicycleTX Limited, priority 2018, dated 2022).

SMILES strings stand for the structures.

The target in one assay is T1, human Nectin-4 protein (Homo sapiens, UniProt Q96NY8).
T1 construct: Human Nectin-4 (residues Gly32-Ser349); host or cells: Sf21 insect cells (baculovirus, pFastbac-1)
T1 sequence (Q96NY8 32-349): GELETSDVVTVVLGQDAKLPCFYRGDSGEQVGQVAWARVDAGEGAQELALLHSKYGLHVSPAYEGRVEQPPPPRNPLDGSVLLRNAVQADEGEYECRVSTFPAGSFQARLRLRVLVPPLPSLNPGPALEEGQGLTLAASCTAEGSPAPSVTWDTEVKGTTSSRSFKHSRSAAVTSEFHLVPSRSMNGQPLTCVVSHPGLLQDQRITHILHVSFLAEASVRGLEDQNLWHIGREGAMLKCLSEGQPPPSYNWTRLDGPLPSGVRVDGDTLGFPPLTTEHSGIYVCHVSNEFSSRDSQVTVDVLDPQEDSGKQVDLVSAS
Kind of assay: Nectin-4 Biacore (SPR) binding assay. The note with it: biotinylated human Nectin-4, 25° C. As for the experimental part: Biacore experiments were performed to determine ka (M^−1s^−1), kd (s^−1), KD (nM) values of heterotandem peptides binding to human Nectin-4 protein (obtained from Charles River). Human Nectin-4 (residues Gly32-Ser349; NCBI RefSeq: NP_112178.2) with a gp67 signal sequence and C-terminal FLAG tag was cloned into pFastbac-1 and baculovirus made using standard Bac-to-Bac™ protocols (Life Technologies). Sf21 cells at 1×10^6 ml^−1 in Excell-420 medium (Sigma) at 27° C. were infected at an MOI of 2 with a P1 virus stock and the supernatant harvested at 72 hours. The supernatant was batch bound for 1 hour at 4° C. with Anti-FLAG M2 affinity agarose resin (Sigma) washed in PBS and the resin subsequently transferred to a column and washed extensively with PBS. The protein was eluted with 100 μg/ml FLAG peptide. The eluted protein was concentrated to 2 ml and loaded onto an S-200 Superdex column (GE Healthcare) in PBS at 1 ml/min. 2 ml fractions were collected and the fractions containing Nectin-4 protein were concentrated to 16 mg/ml.
The protein was extensively desalted to remove uncoupled biotin using spin columns into PBS.
For analysis of peptide binding, a Biacore 3000 instrument was used with a CM5 chip (GE Healthcare). Streptavidin was immobilized on the chip using standard amine-coupling chemistry at 25° C. with HBS-N (10 mM HEPES, 0.15 M NaCl, pH 7.4) as the running buffer. Briefly, the carboxymethyl dextran surface was activated with a 7 minute injection of a 1:1 ratio of 0.4 M 1-ethyl-3-(3-dimethylaminopropyl) carbodiimide hydrochloride (EDC)/0.1 M N-hydroxy succinimide (NHS) at a flow rate of 10 μl/min. For capture of streptavidin, the protein was diluted to 0.2 mg/ml in 10 mM sodium acetate (pH 4.5) and captured by injecting 120 μl of streptavidin onto the activated chip surface. Residual activated groups were blocked with a 7 minute injection of 1 M ethanolamine (pH 8.5) and biotinylated Nectin-4 captured to a level of 1,200-1,800 RU. Buffer was changed to PBS/0.05% Tween 20 and a dilution series of the peptides was prepared in this buffer with a final DMSO concentration of 0.5%. The top peptide concentration was 100 nM with 6 further 2-fold dilutions. The SPR analysis was run at 25° C. at a flow rate of 50 μl/min with 60 seconds association and dissociation between 400 and 1,200 seconds depending upon the individual peptide. Data were corrected for DMSO excluded volume effects. All data were double-referenced for blank injections and reference surface using standard processing procedures and data processing and kinetic fitting were performed using Scrubber software, version 2.0c (BioLogic Software). Data were fitted using simple 1:1 binding model allowing for mass transport effects where appropriate.

The test system of assay [1] is human PBMC co-cultured with 4T1-D02 (Nectin4+). Kind of assay: Human PBMC-4T1 co-culture (cytokine release) assay. The note with it: anti-CD3 stimulated PBMC, 48 hours. In kind it is cell-based. A digest of the protocol:
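Healthy-donor human PBMCs co-cultured 5:1 with murine Nectin-4-overexpressing 4T1-D02 cells, stimulated with 125 ng/ml soluble anti-CD3 (OKT3) plus test compounds. IL-2 and IFNγ in 48 h supernatants measured by HTRF and interpolated from standard curves; three donors, each in duplicate.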

The target of another assay is CD137 (Homo sapiens, UniProt Q07011). Kind of assay: CD137 reporter assay, co-culture with Nectin-4 tumour cells.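 Also: jurkat reporter cells co-cultured with tumour cells and test article for 6 h, luminescence signal relative to Jurkat plus tumour cells lacking test article.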 In kind it is cell-based. The arrangement: host or cells: Jurkat reporter cells. The note with it: read-out: Fold Induction over Background at 100 nM.
Sequence of CD137 (Q07011 24-255): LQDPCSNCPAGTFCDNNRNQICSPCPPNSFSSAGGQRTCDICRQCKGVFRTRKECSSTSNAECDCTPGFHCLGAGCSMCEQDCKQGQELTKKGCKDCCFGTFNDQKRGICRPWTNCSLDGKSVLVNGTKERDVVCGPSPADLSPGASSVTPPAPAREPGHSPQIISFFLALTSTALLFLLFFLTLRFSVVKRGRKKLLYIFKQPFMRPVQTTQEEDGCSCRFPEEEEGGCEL

Procedure for CD137: Culture medium referred to as R1 media is prepared by adding 1% FBS to RPMI-1640 (component of Promega kit CS196005). Serial dilutions of test articles in R1 are prepared in a sterile 96 well-plate. Use 25 μl per well of test articles or R1 (as a background control) to designated wells in white cell culture plate. Tumour cells* are harvested and resuspended at a concentration of 400,000 cells/mL in R1 media. Twenty five (25) μL/well tumour cells are used in white cell culture plate. Jurkat cells (Promega kit CS196005, 0.5 mL) are thawed in the water bath and then added to 5 ml pre-warmed R1 medium. Twenty five (25) μL/well Jurkat cells are used in white cell culture plate. Incubate the cells and test articles for 6h at 37° C., 5% CO2. At the end of 6 h, add 75 μl/well Bio-Glo™ (Promega) and incubate for 10 min before reading luminescence in a plate reader (Clariostar, BMG). The fold change relative to cells (Jurkat cells+Cell line used in co-culture) is calculated and plotted in GraphPad Prism as log(agonist) vs response to determine EC50 (nM) and Fold Induction over background (Max)

What is called Kd is a measure of binding affinity in units of concentration. A higher Kd goes with weaker binding. `CCCC[C@@H]1NC(=O)[C@H](Cc2ccc(O)cc2)NC(=O)[C@@H]2CCCN2C(=O)[C@H](CC(=O)O)NC(=O)[C@H](C)NC(=O)[C@H](Cc2ccccc2)NC(=O)[C@@H]2CSCCC(=O)N3CN(CN(C3)C(=O)CCSC[C@@H](C(=O)N[C@@H](CNC(=O)CCOCCOCCOCCOCCOCCOCCOCCOCCOCCOCCOCCOCCn3cc(CCC(=O)NCCC(=O)N(C)CC(=O)N(C)CC(=O)N(C)CC(=O)N(C)CC(=O)N(C)CC(=O)N(C)CC(=O)N(C)CC(=O)N(C)CC(=O)N(C)CC(=O)N(C)CC(=O)N[C@H]4CSCCC(=O)N5CN6CN(C5)C(=O)CCSC[C@H](NC(=O)[C@@H](CC(=O)O)NC(=O)[C@H](Cc5cccc7ccccc57)NC(=O)[C@@H]5CCCN5C4=O)C(=O)N[C@@H](CCSC)C(=O)N[C@@H](CCCCNC(=N)N)C(=O)N[C@@H](CC(=O)O)C(=O)N[C@H](Cc4c[nH]c5ccccc45)C(=O)N[C@@H](CO)C(=O)N[C@@H]([C@@H](C)O)C(=O)N4CCC[C@H]4C(=O)N4C[C@H](O)C[C@H]4C(=O)N[C@H](Cc4c[nH]c5ccccc45)C(=O)N[C@H](C(N)=O)CSCCC6=O)nn3)C(N)=O)NC1=O)C(=O)CCSC[C@H](NC(=O)[C@H](C)NC(C)=O)C(=O)N[C@@H]([C@@H](C)CC)C(=O)N[C@@H](CCC(=O)O)C(=O)N[C@@H](CCC(=O)O)C(=O)NCC(=O)N[C@@H](CCC(N)=O)C(=O)N[C@@H](Cc1ccc(O)cc1)C(=O)N2` [BCY9350] displayed a dissociation constant (Kd) at human Nectin-4 protein above 200 nM. Besides, the “max IFN-y” value in assay [1] is listed as “No Activity up to 1 μM”. For the same molecule, the fold induction at 0.1 µM on CD137 was below 2.
